# In patent US20250197423A1, “RAS INHIBITORS” (Revolution Medicines, Inc., priority 2022, published 2025):
# Experiments:
# [1] = system: SW1573; conditions: Canon et al. 2019; cited from earlier work
# [2] = from CO[C@@H](C)c1ncccc1-c1c(CC(C)(C)CO)c2cc(C3=CCCN(C[C@H](NC(=O)OC(C)(C)C)C(=O)N4CCC[C@@H](C(=O)O)N4)C3)ccc2n1CC(F)(F)F; ester bond; 18-membered ring; EDCI/HOBt/DIEA; DCM; 12.5 mM; 25.0 °C; 16.0 h; 3 steps
Structure (SMILES),sensitivity of cell line to inhibitor [1],"ring closure, isolated yield [2] [%]"
C=CC(=O)N1CCN(c2nc(=O)n(-c3c(C)ccnc3C(C)C)c3nc(-c4c(O)cccc4F)c(F)cc23)[C@@H](C)C1 [AMG510],insensitive,
CO[C@@H](C)c1ncccc1-c1c2c3cc(ccc3n1CC(F)(F)F)C1=CCCN(C1)C[C@H](NC(=O)OC(C)(C)C)C(=O)N1CCC[C@H](N1)C(=O)OCC(C)(C)C2,,63.7
